Experimental data from ChEMBL document CHEMBL5604063, “ASAP - DENV-2 NS2B-NS3 protease fluorescence dose response” (2024).
“And” between values parts separate entries of the source, which are not always exact repeats. Identical values can stand only once.

Legend:
[1] = molecular target: T1, Genome polyprotein (dengue virus type 2, UniProt P29990); type: functional, Thailand/16681/1984
[2] = molecular target: T1, Genome polyprotein; type: functional, Thailand/16681/1984; remark: listed apart in the source

T1 sequence (P29990 1346-1475 limits assumed): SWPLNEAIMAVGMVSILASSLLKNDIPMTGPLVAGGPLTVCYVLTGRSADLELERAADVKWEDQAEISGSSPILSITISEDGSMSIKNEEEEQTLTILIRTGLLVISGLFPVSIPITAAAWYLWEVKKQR
T1 sequence (P29990 1476-2093 limits assumed): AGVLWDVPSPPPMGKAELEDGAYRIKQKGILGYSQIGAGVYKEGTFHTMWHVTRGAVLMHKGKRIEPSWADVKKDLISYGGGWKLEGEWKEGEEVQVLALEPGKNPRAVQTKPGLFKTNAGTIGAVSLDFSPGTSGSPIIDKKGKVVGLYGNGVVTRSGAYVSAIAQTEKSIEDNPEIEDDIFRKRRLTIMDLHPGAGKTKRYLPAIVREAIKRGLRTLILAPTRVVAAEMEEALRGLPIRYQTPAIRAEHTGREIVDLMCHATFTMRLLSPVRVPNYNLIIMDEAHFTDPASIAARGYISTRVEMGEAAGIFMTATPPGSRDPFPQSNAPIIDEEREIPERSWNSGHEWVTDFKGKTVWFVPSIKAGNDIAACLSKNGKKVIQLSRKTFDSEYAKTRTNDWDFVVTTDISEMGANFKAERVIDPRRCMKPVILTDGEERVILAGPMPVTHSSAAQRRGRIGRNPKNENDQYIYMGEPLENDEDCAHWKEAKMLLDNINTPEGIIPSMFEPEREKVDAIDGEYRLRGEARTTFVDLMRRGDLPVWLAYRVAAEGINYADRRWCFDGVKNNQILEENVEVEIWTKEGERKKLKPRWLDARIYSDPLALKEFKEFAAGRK

Row | Compound | IC50 [1] | IC50 [2]
1 | COc1cc(Br)cc2c1NC(=O)[C@]2(Nc1ccc2c(c1)CNC2)C(N)=O | > 100 µM | > 99.5 µM
2 | O=C(Nc1ccc2c(c1)CNC2)c1cccc(-c2cnco2)c1 | 57.7 µM and 70.3 µM | 27.6 µM
3 | COCCOc1ccc(Cl)cc1C(=O)Nc1ccc2c(c1)CNC2 | > 100 µM | > 99.5 µM
4 | O=C(Nc1ccc2c(c1)CNC2)N1C[C@H](C2CC2)C[C@@H]1C1CC1 | > 100 µM | > 99.5 µM
5 | O=C(NCc1ccc2c(c1)CCNC2)c1cc(Cl)cc2[nH]ncc12 | > 100 µM | > 99.5 µM
6 | Cc1nc2cc(Cl)ccc2cc1C(=O)Nc1ccc2c(c1)CNC2 | > 100 µM | > 99.5 µM
7 | C[C@H]1C[C@H](c2cccc(CN)c2)[C@@H](c2cc(Cl)cc(NC(=O)OCc3ccccc3)c2)C1 | 77.6 µM | 55.7 µM
8 | Cn1ncc(C(=O)Nc2cc(CCCN)ccn2)c1O | > 100 µM | > 99.5 µM
9 | O=C(Nc1ccc2c(c1)CNC2)C1(c2ccc(Cl)cc2)CCCC1 | > 100 µM | > 99.5 µM
10 | O=C1Cc2c(cccc2C(=O)Nc2ccc3c(c2)C(=O)OC3)N1 | > 100 µM | > 99.5 µM
11 | C[C@H]1Oc2c(cccc2C(=O)Nc2ccc3c(c2)CNC3)NC1=O | 90.4 µM | 89.3 µM
12 | Cc1c(C(=O)Nc2cc3c(cn2)OCC3)cc(C2CC2)n1C | > 100 µM | > 99.5 µM
13 | O=C(Nc1ccc2c(c1)CNC2)c1cc(Br)cc2[nH]c(C3CCOCC3)nc12 | > 100 µM | > 99.5 µM
14 | CC(C)COc1ccc(Cl)cc1C(=O)Nc1ccc2c(c1)CNC2 | > 100 µM | > 99.5 µM
15 | CC(C)(C)O[C@H]1CCCN(C(=O)Nc2ccc3c(c2)CNC3)C1 | > 100 µM | > 99.5 µM
16 | CC1(C)CN(C(=O)Nc2ccc3c(c2)CNC3)CC(F)(F)C1 | > 100 µM | > 99.5 µM
17 | CNC(=O)[C@]1(Nc2ccc3c(c2)CNC3)C(=O)Nc2ccc(Cl)cc21 | > 100 µM | > 99.5 µM
18 | Cc1ccc2cc(Cl)cc(C(=O)Nc3ccc4c(c3)CNC4)c2n1 | 53.2 µM and > 100 µM | 85.7 µM
19 | N#C[C@H](Nc1ccc2c(c1)CNC2)c1ccnc(C(F)(F)F)c1 | > 100 µM | > 99.5 µM
20 | C#Cc1ccnc(NC(=O)c2cc(C3CC3)n(C)c2C)c1 | > 100 µM | > 99.5 µM
21 | O=C(Nc1ccc2c(c1)CNC2)N1CCC[C@](O)(c2ccccc2)C1 | > 100 µM | > 99.5 µM
22 | O=C(Nc1ccc2c(c1)CNC2)N1CCC[C@H](CC2CCC2)C1 | > 100 µM | > 99.5 µM

Row | Compound | IC50 [1] | IC50 [2]
23 | O=C1CCN(c2cc(Cl)cc(C(=O)Nc3ccc4c(c3)CNC4)c2)C(=O)N1 | > 100 µM | > 99.5 µM
24 | CCN(CC)C[C@H]1CCCN(C(=O)Nc2ccc3c(c2)CNC3)C1 | > 100 µM | > 99.5 µM
25 | Cn1ncc2c(C(=O)Nc3ccc4c(c3)CNC4)cc(C3CC3)nc21 | > 100 µM | > 99.5 µM
26 | COCCc1ccnc(NC(=O)c2cc(C3CC3)n(C)c2C)c1 | > 100 µM | > 99.5 µM
27 | CCCN1C(=O)[C@](Nc2ccc3c(c2)CNC3)(C(=O)NC)c2ccccc21 | > 100 µM | > 99.5 µM
28 | O=C(Nc1ccc2c(c1)CNC2)c1cc(Cl)cc2ccncc12 | > 100 µM | > 99.5 µM
29 | C[C@H]1CC2(CN1C(=O)Nc1ccc3c(c1)CNC3)CC(F)(F)C2 | > 100 µM | > 99.5 µM
30 | O=C(Nc1ccc2c(c1)CNC2)N1CC[C@H](CC(F)(F)F)C1 | > 100 µM | > 99.5 µM
31 | O=C1Cc2c(cc(Br)cc2C(=O)Nc2ccc3c(c2)CNC3)N1 | > 100 µM | > 99.5 µM
32 | CCCN1C(=O)[C@](Nc2ccc3c(c2)CNC3)(C(=O)NC)c2cc(Cl)ccc21 | > 100 µM | > 99.5 µM
33 | Cc1c[nH]c2ncnc(C(=O)Nc3ccc4c(c3)CNC4)c12 | > 100 µM | > 99.5 µM
34 | O=C(Nc1ccc2c(c1)CNC2)[C@H]1C[C@@H]1c1ccccc1 | > 100 µM | > 99.5 µM
35 | Nc1noc2cccc(C(=O)Nc3ccc4c(c3)CNC4)c12 | > 100 µM | > 99.5 µM
36 | Clc1cc([C@H](C#Cc2ccccc2)Nc2ccc3c(c2)CNC3)c2cn[nH]c2c1 | 88.8 µM | > 99.5 µM
37 | Cc1nc2c(C(=O)Nc3ccc4c(c3)CNC4)cccc2[nH]1 | > 100 µM | > 99.5 µM
38 | O=C(Nc1ccc2c(c1)CNC2)c1cc(Br)cc2[nH]c(=O)[nH]c12 | 54.4 µM | 67.1 µM
39 | Cc1cc2c(C(=O)Nc3ccc4c(c3)CNC4)cccc2[nH]1 | > 100 µM | > 99.5 µM
40 | O=C(NCCCn1ccnc1)[C@H](Nc1ccc2c(c1)CNC2)c1cc(Cl)cc(C2CC2)c1 | > 100 µM | > 99.5 µM
41 | CC(C)c1nccn1C[C@H]1CCCN1C(=O)Nc1ccc2c(c1)CNC2 | > 100 µM | > 99.5 µM
42 | O=C1COc2c(cccc2C(=O)Nc2ccc3c(c2)CNC3)N1 | > 100 µM | > 99.5 µM
43 | O=C(Nc1ccc2c(c1)CNC2)c1cccc2ccncc12 | > 100 µM | > 99.5 µM
